Literature values as cited in patent EP0535567A1, “Liposomes containing volatile inhalation anaesthetics, their preparation and their use” (B. Braun Melsungen AG, priority 1991, dated 1993).

Conditions: fraction of the anaesthetic that is metabolised

- verstoffwechselt: < 2%
Structure (SMILES): FC(F)OC(Cl)C(F)(F)F (stereo not shown) [Isofluran, 1-Chlor-2,2,2-trifluorethyl(difluormethyl)ether]
